Drawing on ChEMBL document CHEMBL1275340, “BACE1 inhibitory activities of enantiomerically pure, variously substituted N-(3-(4-benzhydrylpiperazin-1-yl)-2-hydroxypropyl) arylsulfonamides” (Bioorg Med Chem, 2010), this text covers IC50 for eight compounds.

Structures are written as SMILES.

The target in this experiment is Beta-secretase 1 (Homo sapiens, UniProt P56817). Description: Inhibition of BACE1 by fluorescence assay.
Beta-secretase 1, sequence (P56817 whole entry): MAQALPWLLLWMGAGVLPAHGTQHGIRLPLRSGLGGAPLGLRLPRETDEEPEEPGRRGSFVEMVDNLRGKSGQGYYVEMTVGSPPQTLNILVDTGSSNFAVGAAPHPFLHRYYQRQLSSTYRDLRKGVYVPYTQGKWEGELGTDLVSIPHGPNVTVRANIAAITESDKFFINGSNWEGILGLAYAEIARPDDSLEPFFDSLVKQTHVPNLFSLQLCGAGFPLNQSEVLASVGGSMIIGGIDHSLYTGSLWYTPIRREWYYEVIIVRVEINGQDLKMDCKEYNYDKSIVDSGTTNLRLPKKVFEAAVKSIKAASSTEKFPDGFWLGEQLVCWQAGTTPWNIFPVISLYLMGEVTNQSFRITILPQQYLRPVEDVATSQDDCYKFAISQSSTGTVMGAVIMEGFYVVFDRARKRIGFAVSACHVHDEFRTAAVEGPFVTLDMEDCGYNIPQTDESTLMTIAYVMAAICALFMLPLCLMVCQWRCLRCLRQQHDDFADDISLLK

In general, IC50 refers to the point on the concentration scale where inhibition reaches its midpoint. In turn, `O=S(=O)(c1ccc(Cl)c(Cl)c1)N(CC1CC1)C[C@H](O)CN1CCN(C(c2ccccc2)c2ccccc2)CC1` showed an IC50 of 5.4 µM.

Compound `O=S(=O)(c1ccccc1)N(CCc1ccccc1)C[C@H](O)CN1CCN(C(c2ccccc2)c2ccccc2)CC1` registered a half-maximal inhibitory concentration (IC50) of 5.1 µM.

`O=S(=O)(c1ccc(Cl)cc1)N(CCc1ccccc1)C[C@@H](O)CN1CCN(C(c2ccccc2)c2ccccc2)CC1` showed an IC50 of 1.9 µM.

For the compound `O=S(=O)(c1ccc(Cl)c(Cl)c1)N(CC1CC1)C[C@@H](O)CN1CCN(C(c2ccccc2)c2ccccc2)CC1`, it took 4.7 µM to reach half-maximal inhibition (IC50).

The compound `O=S(=O)(c1ccc(Cl)cc1)N(Cc1ccccc1)C[C@@H](O)CN1CCN(C(c2ccccc2)c2ccccc2)CC1` had a 50% inhibitory concentration (IC50) of 5.4 µM.

In turn, `O=S(=O)(c1ccc(Cl)cc1)N(CCc1ccccc1)C[C@H](O)CN1CCN(C(c2ccccc2)c2ccccc2)CC1` came in with an IC50 of 2.3 µM.

`O=S(=O)(c1ccc(Cl)cc1)N(Cc1ccccc1)C[C@H](O)CN1CCN(C(c2ccccc2)c2ccccc2)CC1`: the IC50 came to 6.3 µM.

In the case of `O=S(=O)(c1ccccc1)N(CCc1ccccc1)C[C@@H](O)CN1CCN(C(c2ccccc2)c2ccccc2)CC1`, the concentration for half-maximal inhibition (IC50) came to 6.9 µM.
